Test results: ChEMBL document CHEMBL3507680, “University of Dundee, Gates Library screen for HepG2 cell viability”

Experiment: Human HepG2 cell viability assay in 384 well format
Assay type: toxicity, cell-based
Design: dose 125 nL, time 70.5 hour; cytotoxicity at 70.5 h: concentration not given beside the values
Conditions: HepG2 cells, read-out: Inhibition

Row | SMILES | cytotoxicity at 70.5 h
1 | CC(Nc1cccc(CN2CCOC2=O)c1)C(=O)NC(N)=O (stereo unspecified) | 32%
2 | Cc1cc(NC(=O)CN2CCCC2c2noc(C3CC3)n2)no1 (stereo unspecified) | 1.09%
3 | CCN(Cc1ccco1)C(=O)NCC(C)N1CCc2sccc2C1 (stereo unspecified) | 13.6%
4 | COc1ccnc(NC2CCN(CC(=O)Nc3ccccc3)CC2)n1 | 4.43%
5 | COC(C)(C)CC(C)NCc1cc(-c2ccco2)on1 (stereo unspecified) | -11.4%
6 | CC(C)(C)C(=O)NCC(=O)NCC1CCCS1 (stereo unspecified) | -10.6%
7 | CN(C)S(=O)(=O)N1CCCC(c2ccncn2)C1 (stereo unspecified) | -5.39%
8 | O=C(Cc1c[nH]c(=O)[nH]c1=O)N1CCCCC1CCc1ccccc1 (stereo unspecified) | 3.58%
9 | Cc1nccn1-c1ccc(CNC(=O)c2ccc([S+](C)[O-])cc2)cn1 (stereo unspecified) | -3.4%
10 | CN(C)C(=O)COC[C@]12COC[C@H]1CN(CCc1ccccc1)C2 | -1.91%
11 | Cc1nccc(-c2ccccc2)c1C(=O)N1CC[C@](C)(O)[C@H](C)C1 | 13.7%
12 | CN(C)C1COC2(CCN(Cc3ccncc3)CC2)C1 (stereo unspecified) | -7.75%
13 | NC(=O)C(NC(=O)COC1CCCC1)c1ccccc1 (stereo unspecified) | -6.85%
14 | CN(Cc1cncnc1)Cc1cn2c(n1)CN(C1CCOC1)CC2 (stereo unspecified) | -13.2%
15 | CCN1CCN(C[C@@H]2CN(Cc3cnc(C(C)C)nc3)C[C@@H]2CO)CC1 | 13.2%
16 | CC(C)c1noc(C(C)S(=O)(=O)Cc2nc(C3CC3)no2)n1 (stereo unspecified) | -4.5%
17 | CCC(Nc1cccc(Oc2ccccn2)c1)C(N)=O (stereo unspecified) | -7.08%
18 | CC(C)CCNC(=O)c1ccc2c(=O)n(-c3ccccc3)cnc2c1 | -25.3%
19 | O=C(Nc1cccc(N2CCOCC2)c1)N[C@H](CO)c1ccccc1 | -1.11%

Row | SMILES | cytotoxicity at 70.5 h
20 | CC(=O)N1CCN(c2cc(N3CCOCC3)cnn2)CC1 | 6.14%
21 | CC(C)(C)c1cccc(OCC(=O)NS(=O)(=O)c2cccnc2)c1 | 21.7%
22 | COc1cc(CNC(C)Cn2ccnc2)cc2c1OCO2 (stereo unspecified) | -10.9%
23 | O=c1cc(CNS(=O)(=O)C2CC2)nc2n1CCCN(CC1CC1)C2 | -5.1%
24 | CC(C)C[C@@H](CO)n1cc(-c2cnc(-c3ccco3)nc2)nn1 | -6.45%
25 | CN(C)c1cc(C2CCCN(S(=O)(=O)c3cn[nH]c3)C2)ccn1 (stereo unspecified) | -1.45%
26 | CC1c2cc(F)ccc2CCN1C(=O)c1[nH]c(=O)[nH]c(=O)c1N (stereo unspecified) | -2.24%
27 | Cc1cccc(CN2CCCC3(CCN(C4CCSCC4)C3)C2=O)c1 (stereo unspecified) | 7.94%
28 | C/C(NC(=O)c1ccco1)=C1/C(=O)C[C@@H]2[C@H]1C2(C)C | -6.66%
29 | CCc1nnc(SCC(=O)Nc2cc(C(C)(C)C)nn2C)[nH]1 | -5.12%
30 | CC(C)Cn1cncc1CNC(=O)c1cccc(CC2CCNCC2)c1 | 8.07%
31 | Cc1cnn(CC2CCCN2C(=O)CCCc2nc(C)no2)c1 (stereo unspecified) | 32.9%
32 | Cc1noc(C)c1CN1CC[C@H]2OCC[C@@H](C(=O)N3CCCO3)[C@H]2C1 | -2.47%
33 | Cc1cnn(CCNCC(O)COc2ccc(C#N)cc2)c1 (stereo unspecified) | -5.86%
34 | Cc1ccccc1CN(CCN(C)C)Cc1ccc(O)c(C(=O)O)c1 | -8.19%
35 | CSC1(CNC(=O)NC(C)c2ccc(F)c(F)c2)CCOCC1 (stereo unspecified) | -1.76%
36 | Cc1ccc(C(=O)Nc2cn[nH]c2)cc1F | 13.5%
37 | Cc1cc(-c2cnc(NC3CC3)nc2-c2ccoc2C)on1 | -5.1%
38 | O=S(=O)(CCCN1CCOC(Cn2cccn2)C1)c1ccccc1 (stereo unspecified) | 2.06%

Row | SMILES | cytotoxicity at 70.5 h
39 | CC1c2ncc(CNC(=O)C3CC3)n2CCN1Cc1cccnc1 (stereo unspecified) | -5.38%
40 | Cc1cc(C)n(CC2CCCN2CCC(=O)Nc2cc(C)on2)n1 (stereo unspecified) | -7.1%
41 | CCSc1cccc(NCc2cccnc2)c1 | -16.6%
42 | C[C@@H](O)CNC(=O)CCc1nc2cccnc2[nH]1 | -23.4%
43 | Cc1ccc(NC(=O)c2ccc(=O)n(CC(=O)NC3CCCC3)n2)cc1 | 4.71%
44 | CC(C)COC[C@@H]1CC[C@H]2[C@H](CCN2C(=O)c2ccncc2F)O1 | 1.98%
45 | C1CCC(NCCN2CCOCC2)C1 | 16.9%
46 | CN(C)C1CCN(C(=O)C2SCCc3ccccc32)CC1 (stereo unspecified) | -6.27%
47 | CSc1cccc(CNC(=O)C2CC(=O)N(CCN(C)C)C2)c1 (stereo unspecified) | 4.55%
48 | COCC(=O)NCCSCCOc1cccc(Br)c1 | 32%
49 | CO[C@@H]1CCN(c2ncc(F)cn2)[C@H]1Cc1cnn(C)c1 | -11.6%
50 | CCC(CC)C(O)CNC(=O)Cc1c[nH]c2ncccc12 (stereo unspecified) | -4.44%
51 | Cc1noc(C)c1CN(C)Cc1csc(-c2ccc(F)cc2)n1 | -8.1%
52 | COc1cccc(N2CCN(C(=O)CO)CC2=O)c1 | -2.57%
53 | COc1ncccc1C(=O)N1CC[C@H]2C[C@H](c3nnc(C)[nH]3)O[C@@H]2C1 | -14.1%
54 | Cc1nn2cccnc2c1C(=O)N1CCCC(n2ccnc2C)C1 (stereo unspecified) | -4.03%
55 | Cn1cnc2c1C(COCC1CC1)CN(C(=O)Cc1ccsc1)C2 (stereo unspecified) | -3.95%
56 | CC(C)c1noc(CS(=O)(=O)CC(=O)NCC(F)(F)F)n1 | -6.46%
